Source: patent US11970497B2, “Tricyclic AKR1C3 dependent KARS inhibitors” (Novartis AG, priority 2019, dated 2024)

Experiments:
Type in all cases: cell-based
[1] = tested on: Hara (NRF2 pathway wild type cell line with low AKR1C3 expression); assay: In vitro cell proliferation assay (CellTiter-Glo), Hara; conditions: 72 h; Hara cells, 3 days, CellTiter-Glo, top concentration 10 μM; read-out: HARA Qualified absolute AC50
How it was run: (§1)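 Luminescent CellTiter-Glo readout after 3-day compound exposure at 37 °C; 8-point 1:5 series, top 10 μM final. Seeding: 800 cells/well for H460, 2000 cells/well for Hara, RPMI-1640 plus 10% FBS. AC50 and percentage activity derived after normalizing to DMSO (1%) and MG132 (30 μM) controls.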

[2] = tested on: H460 (NRF2 pathway mutant cell line with high AKR1C3 expression); assay: In vitro cell proliferation assay (CellTiter-Glo), H460; conditions: Homo sapiens, NCI-H460, 72 h; H460 cells, 3 days, CellTiter-Glo, top concentration 10 μM; read-out: H460 Qualified absolute AC50
How it was run: as §1

NCI-H1944 = assay: Expanded lung cancer cell line proliferation assay; conditions: Homo sapiens; NCI-H1944, 72 h, average of PrestoBlue and Cell Titer Glo; AKR1C3 3164.3 TPM; read-out: Absolute Qualified AC50
Source text: (§2) Cellular Proliferation Assay to Assess Compound Activity in an Expanded Panel of 57 NRF2 Pathway Mutant and Wild Type Lung Cancer Cell Lines.
(§3) Both the PrestoBlue Cell Viability Reagent and Cell Titer Glo were multiplexed together as the final assay readout. PrestoBlue is a cell permeable resazurin-based solution that utilizes the reducing power of living cells to quantitatively measure their proliferation. Cell Titer Glo measures the amount of ATP present, an indicator of metabolically active cells.
(§4) Expanded Lung Cancer Cell Line Proliferation Assay Outline, Analysis and Profiling Results
(§5) Cells were seeded into 384 well assay plates (Greiner Bio-One, Catalog #781080) using the Thermo Scientific Matrix WellMate microplate dispenser and Thermo Scientific Matrix WellMate small bore disposable tubing cartridges (Catalog #201-30002) in 30 μl of growth media (RPMI-1640 supplemented with 10% fetal bovine serum and 1% penicillin/streptomycin) per well (1000 to 2000 cells/well depending on doubling time). Following cell plating, assay plates were placed into tissue culture incubator at 37° C./5% CO2 overnight. The next day one assay plate for each cell line was used for a Day 0 Cell Titer Glo and PrestoBlue readout. 3 μl of PrestoBlue Cell Viability Reagent (Thermo Scientific, Catalog #A13262) was added to each well and then assay plates were incubated at 37° C./5% CO2 for 30 minutes prior to fluorescence readout on the EnVision 2105 multimode plate reader (Perkin Elmer). Following the PrestoBlue readout 18 μl of Cell Titer Glo (Promega, Catalog #G7572) was then added to each well, allowing plates to incubate at room temperature for 10 minutes prior to luminescence readout on the EnVision. Compound was then added to the remaining assay plates (each cell line run in triplicates) using the Labcyte Inc Echo 555 acoustic liquid handler. Compounds were arrayed into a Labcyte Inc Echo qualified 384 well LDV microplate (Cat #LP-0200-GNF10). Compounds were serially diluted 1:3.16 to generate an 8 point dose response for a final top concentration of 1 μM. DMSO (0.3%) was used as the neutral control (NC) and MG132 (30 μM) was used as the active control (AC). 90 nl of compounds were added to 30 μl of cells using the Labcyte Inc Echo 555 acoustic liquid handler for a final DMSO assay concentration of 0.3%. Following compound addition, assay plates were spun down in a tabletop centrifuge at 500 rpm for 1 minute and then placed into tissue culture incubator at 37° C./5% CO2 for 72 h. Following the 72 h incubation, all assay plates were readout using PrestoBlue and Cell Titer Glo using the same conditions previously described for the Day 0 readout. The Day 0 readout (untreated cells) was used to compare to the 72 h DMSO treated samples on each assay plate as a way of tracking each cell line's fold growth. NC1 control based normalization was used for data analysis in Helios, which incorporates the DMSO neutral control (NC) and MG132 active control (AC) for generating dose response curves that are then used to calculate the Absolute Qualified AC50 calls for each compound and cell line.
(§6) NC1 normalization calculation model: NC1: xn=±(x−NC)/(AC−NC)
(§7) +/− is set by the inhibition type parameter setting where NC and AC are averages (mean or median) over the corresponding NC and AC well values. The Qualified Absolute AC50 values for Compound 36 and Compound 40 are listed in the table below and are represented as the average activity in both the PrestoBlue and Cell Titer Glo assay readouts.
(§8) Absolute Qualified AC50 Values Listed Below are a Representation of Each Compounds' Average Activity in Both the PrestoBlue and Cell Titer Glo Assay Readouts.

COLO-699 = assay: Expanded lung cancer cell line proliferation assay; conditions: COLO-699, 72 h, average of PrestoBlue and Cell Titer Glo; AKR1C3 expression: no data available; read-out: Absolute Qualified AC50
Source text: as §2, §3, §4, §5, §6, §7, §8

HCC95 = assay: Expanded lung cancer cell line proliferation assay; conditions: Homo sapiens; HCC95, 72 h, average of PrestoBlue and Cell Titer Glo; AKR1C3 939.1 TPM; read-out: Absolute Qualified AC50
Source text: as §2, §3, §4, §5, §6, §7, §8

LXF-289 = assay: Expanded lung cancer cell line proliferation assay; conditions: Homo sapiens; LXF-289, 72 h, average of PrestoBlue and Cell Titer Glo; AKR1C3 358.4 TPM; read-out: Absolute Qualified AC50
Source text: as §2, §3, §4, §5, §6, §7, §8

NCI-H1838 = assay: Expanded lung cancer cell line proliferation assay; conditions: Homo sapiens; NCI-H1838, 72 h, average of PrestoBlue and Cell Titer Glo; AKR1C3 1.8 TPM; read-out: Absolute Qualified AC50
Source text: as §2, §3, §4, §5, §6, §7, §8

LK2 = assay: Expanded lung cancer cell line proliferation assay; conditions: Homo sapiens, LK-2; LK2, 72 h, average of PrestoBlue and Cell Titer Glo; AKR1C3 1107 TPM; read-out: Absolute Qualified AC50
Source text: as §2, §3, §4, §5, §6, §7, §8

SMILES | AC50 [1] [µM] | AC50 [2] [µM] | AC50 (NCI-H1944) [µM] | AC50 (COLO-699) [µM] | AC50 (HCC95) [µM] | AC50 (LXF-289) [µM] | AC50 (NCI-H1838) [µM] | AC50 (LK2) [µM]
CN1c2ccc(F)cc2C(=O)CC12CCN(C(=O)NCc1ccc(F)c(NCCO)c1)CC2 [Example 36, 6′-fluoro-N-(4-fluoro-3-((2-hydroxyethyl)amino)benzyl)-1′-methyl-4′-oxo-3′,4′-dihydro-1′H-spiro[piperidine-4,2′-quinoline]-1-carboxamide] | 1.56 | 0.078 | 0.275 | > 1 | 0.287 | 0.781 | > 1 | > 1
O=C1CC2(CCN(C(=O)NCc3ccc(F)cc3)CC2)Nc2ccc(F)cc21 [Example 40] | 1.79 | 0.083 | 0.052 | > 1 | 0.069 | 0.835 | > 1 | > 1
